From ChEMBL document CHEMBL5053537, “Next generation Glucose-1-phosphate thymidylyltransferase (RmlA) inhibitors: An extended SAR study to direct future design” (Bioorg Med Chem, 2021)
≈ marks a conversion by molar mass, not a printed value.

Key:
Pseudomonas aeruginosa = assay: Inhibition of N-terminal His-tagged Pseudomonas aeruginosa RmIA expressed in Escherichia coli BL21 (lambdaDE3) at 10 uM using dTTP and G-1-P as substrates incubated for 30 mins by Biomol green reagent based assay relative to control
[1] = test system: Mycobacterium tuberculosis; assay: Antimycobacterial activity against Mycobacterium tuberculosis assessed as inhibition of bacterial growth; assay type: functional; conditions: read-out: MIC100
[2] = Inhibition of N-terminal His-tagged Pseudomonas aeruginosa RmIA expressed in Escherichia coli BL21 (lambdaDE3) using dTTP and G-1-P as substrates incubated for 30 mins by Biomol green reagent based assay

| Structure (SMILES) | inhibition (Pseudomonas aeruginosa) [%] | other results |
| --- | --- | --- |
| CN(c1c(NCCCCN)n(Cc2ccc(Br)cc2)c(=O)[nH]c1=O)S(=O)(=O)c1ccccc1 | 100 |  |
| CNCCCNc1c(N(C)S(=O)(=O)c2ccccc2)c(=O)[nH]c(=O)n1Cc1ccc(Br)cc1 | 100 |  |
| CN(c1c(N)n(Cc2ccccc2)c(=O)[nH]c1=O)S(=O)(=O)c1ccccc1 |  | MIC [1]: 100 µg/mL (≈ 259 µM) |
| CN(c1c(NCCCn2cc(CN)nn2)n(Cc2ccccc2)c(=O)[nH]c1=O)S(=O)(=O)c1ccccc1 | 100 |  |
| CN(c1c(N)n(Cc2ccc(Br)cc2)c(=O)[nH]c1=O)S(=O)(=O)c1ccccc1 | 100 |  |
| CNCCNc1c(N(C)S(=O)(=O)c2ccccc2)c(=O)[nH]c(=O)n1Cc1ccc(Br)cc1 |  | IC50 [2]: 96 nM |
| CN(c1c(NCCCCCN)n(Cc2ccc(Br)cc2)c(=O)[nH]c1=O)S(=O)(=O)c1ccccc1 | 100 |  |
